The first data set has as its target T1, Proteinase-activated receptor 4 (Homo sapiens) (UniProt Q96RI0).
T1 sequence (whole entry): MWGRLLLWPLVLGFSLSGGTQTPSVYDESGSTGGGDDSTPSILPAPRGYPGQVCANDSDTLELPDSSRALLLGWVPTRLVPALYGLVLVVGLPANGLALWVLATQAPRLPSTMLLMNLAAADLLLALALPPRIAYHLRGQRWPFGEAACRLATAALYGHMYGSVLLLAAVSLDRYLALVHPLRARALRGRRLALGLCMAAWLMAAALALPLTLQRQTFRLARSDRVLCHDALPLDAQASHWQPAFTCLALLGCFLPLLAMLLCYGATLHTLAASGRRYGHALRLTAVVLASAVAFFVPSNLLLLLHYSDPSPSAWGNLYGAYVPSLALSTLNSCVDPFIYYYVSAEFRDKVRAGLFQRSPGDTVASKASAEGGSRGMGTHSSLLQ
Description: Antagonist activity at PAR4 in human platelet rich plasma assessed as inhibition of gamma-PAR4 agonist peptide (AYPGKF-NH2)-induced platelet aggregation at 200 nM preincubated for 5 mins followed by peptide addition and measured after 5 mins by aggregometer relative to control. Format: cell-based. The following applies: filed as antagonist, time 10.0 min.
As usually defined, the inhibition is the percentage by which the read-out fell short of the control. On to `COc1ncc2c(-c3nc4cc(F)c5c(c4s3)C[C@H](COC(=O)Nc3ccc(OC)c(F)c3)O5)cc(C)cc2n1`, for which the inhibition turned out to be 59.6%.
As for `COc1cc(F)c2nc(-c3cc(C)cc4nc(OC)ncc34)sc2c1`, the inhibition came to 78.8%.
On to `COc1cc2sc(-c3cc(C)cc4nc(SC)ncc34)nc2cc1F`, for which the inhibition came out at 74.8%.
Still for that read-out and setting: under `COc1ccc2nc(-c3cc(C)cc4nc(OC)ncc34)sc2c1` stands 77.4%.
On to `COc1ncc2c(-c3nc4cc(F)c(OC)cc4s3)cc(C)cc2n1`, for which the inhibition was found to be 88.3%.
Take `COc1cc(Cl)c2nc(-c3cc(C)cc4cnc(C)nc34)sc2c1`: the inhibition is 85.7%.
On the same count and under the same terms, under `COc1ncc2c(-c3nc4cc(F)c5c(c4s3)C[C@@H](COC(=O)Nc3cc(F)cc(C#N)c3)O5)cc(C)cc2n1` stands 65.8%; under `COCc1ncc2c(-c3nc4cc(F)c(OCCOC(=O)Nc5cccc(C#N)c5)cc4s3)cc(C)cc2n1`, 77.1%.
Take `COc1ncc2c(-c3nc4cc(F)c(OCCO)cc4s3)cc(C)cc2n1`: the inhibition worked out at 84.1%.
As to `COCOc1ncc2c(-c3nc4c(F)cc(OC)cc4s3)cc(C)cc2n1`, the inhibition was determined as 77.4%.
As to `COc1cc(Cl)c2nc(-c3cc(C)cc4cnc(OC(F)F)nc34)sc2c1`, the inhibition came out at 74.5%.
`COc1cc(C)c2nc(-c3cc(C)cc4nc(OC)ncc34)sc2c1`: the inhibition was determined as 70.2%.

Still in this data set, the particulars now being: time 10.0 min.
For `COc1cc(Cl)c2nc(-c3cc(C)cc4cnc(N5CCCCC5)nc34)sc2c1`, the inhibition came out at 39.5%.
On the same count and under the same terms, to `COc1ncc2cc(C)cc(-c3nc4ccccc4s3)c2n1` belongs 29.7%; to `COc1ncc2c(-c3nc4cc(F)c5c(c4s3)C[C@H](COC(=O)Nc3ccc(C(=O)N4CCOCC4)cc3)O5)cc(C)cc2n1`, 38.1%; to `COCc1ncc2c(-c3nc4cc(F)c(OCCOC(=O)OC)cc4s3)cc(C)cc2n1`, 35.3%.
Take `CCOc1ncc2c(-c3nc4c(F)cc(OC)cc4s3)cc(C)cc2n1`: the inhibition came out at 39.1%.
For the compound `COC(=O)OC[C@H]1Cc2c(c(F)cc3nc(-c4cc(C)cc5nc(OC)ncc45)sc23)O1`, the inhibition was 34.9%.
The same measure, in the same setting: under `COc1cc(Cl)c2nc(-c3cc(C)cc4nc(OC(C)C)ncc34)sc2c1` stands 37.7%.
Consider `CCOc1ncc2cc(C)cc(-c3nc4c(Cl)cc(OC)cc4s3)c2n1`, for which the inhibition is 36.7%.

Test system in another data set: not listed separately
The data set can be described thus: Toxicity in male C57BL/6 mouse assessed as prolongation of bleeding time at 10 mg/kg, po measured after 1.5 hrs by tail bleeding assay. It is filed as organism-based. The conditions noted are these: in vivo.
As for `COC(=O)[C@H](c1ccccc1Cl)N1CCc2sccc2C1` [CLOPIDOGREL], the Activity entry is given as “Toxic”.

The values above are taken from ChEMBL document CHEMBL6083259, “Discovery of quinazoline-benzothiazole derivatives as novel potent protease-activated receptor 4 antagonists with improved pharmacokinetics and low bleeding liability” (Eur J Med Chem, 2024).
